Source: US20140088187A1, “ANDROGEN RECEPTOR INHIBITORS AND METHODS OF USE THEREOF” (BETH ISRAEL DEACONESS MEDICAL CENTER, priority 2010, published 2014)
Positions count from the first letter of the chain named. “Also recorded” adds a separate entry of the source.

Experiments:
wildtype AR = biological target: T1, wildtype AR (Homo sapiens, UniProt P10275); test: AR-responsive firefly luciferase reporter assay in COS7 cells transfected with AR (DHT-stimulated AR activity); format: cell-based; conditions: for inhibition at 12.5 µM: COS-7, 24 h, read-out: % Angtag (12.5 μM vs. 1 nM DHT)
T1 construct: The AR WT construct expresses full-length human AR under cmv promoter control; expressed in transfected cells; host or cells: COS7
T1 sequence (P10275 1-920): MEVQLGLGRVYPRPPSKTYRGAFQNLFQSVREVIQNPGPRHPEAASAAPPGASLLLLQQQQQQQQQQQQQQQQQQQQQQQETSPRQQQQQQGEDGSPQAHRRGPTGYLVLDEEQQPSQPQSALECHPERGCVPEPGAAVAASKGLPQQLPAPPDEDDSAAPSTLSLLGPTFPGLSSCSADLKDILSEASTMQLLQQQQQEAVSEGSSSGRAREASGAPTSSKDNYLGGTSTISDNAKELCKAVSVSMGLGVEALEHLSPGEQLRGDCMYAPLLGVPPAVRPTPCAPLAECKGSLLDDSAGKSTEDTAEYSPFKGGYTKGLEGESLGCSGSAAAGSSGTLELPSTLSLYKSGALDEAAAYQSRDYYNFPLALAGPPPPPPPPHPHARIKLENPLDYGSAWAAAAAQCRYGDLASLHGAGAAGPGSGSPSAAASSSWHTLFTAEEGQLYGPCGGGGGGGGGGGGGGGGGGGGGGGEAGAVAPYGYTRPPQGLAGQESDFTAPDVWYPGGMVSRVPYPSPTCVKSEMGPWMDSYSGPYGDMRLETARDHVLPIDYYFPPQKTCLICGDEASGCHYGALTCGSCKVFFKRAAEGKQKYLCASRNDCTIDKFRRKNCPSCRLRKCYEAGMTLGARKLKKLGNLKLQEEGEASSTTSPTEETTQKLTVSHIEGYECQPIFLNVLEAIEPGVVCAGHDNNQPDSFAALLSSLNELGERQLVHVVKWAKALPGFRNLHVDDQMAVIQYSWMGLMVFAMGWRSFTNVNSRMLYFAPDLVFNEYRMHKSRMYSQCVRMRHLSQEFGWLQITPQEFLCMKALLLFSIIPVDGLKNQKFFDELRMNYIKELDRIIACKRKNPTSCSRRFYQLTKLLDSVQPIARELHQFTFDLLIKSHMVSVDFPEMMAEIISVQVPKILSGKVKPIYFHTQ
Excerpt: FIG. 13. Antagonist activity of generation 4 compounds at 25 micromolar. […] Reporter firefly luciferase is corrected for control Renilla activity.
FIG. 14. Antagonist activity of generation 4 compounds at 1-10 micromolar. […] Reporter firefly luciferase is corrected for control Renilla activity. […]
(§1) The AR-responsive firefly luciferase reporter consists of 4 tandem repeats of the consensus steroid response element cloned upstream of the pGL3-Basic Luciferase vector (Promega). The AR WT construct expresses full-length human AR under cmv promoter control.
(§2) Luciferase activity was determined using the Dual-Luciferase Reporter Assay System (Promega E1910).

T877A mutant AR = biological target: T2, T877A mutant AR (Homo sapiens, UniProt P10275, T878A); test: T877A mutant AR luciferase reporter assay; format: cell-based; conditions: HF 100 nM; chemotype A compounds 10 μM
T2 sequence (P10275 1-920 T878A): T1 sequence (P10275 1-920) with T878A
Experimental: FIG. 6. […] (f) W741C mutant AR response to Bic (10 μM), HF (100 nM), and chemotype A compounds (10 μM). Error bars represent S.E.M.
To further validate the predicted positioning of the compounds in the steroid binding pocket, we also examined the effects of established mutations within the LBD.
as §1, §2

VP16-AR = VP16-AR (Homo sapiens, UniProt P10275)
AR in VCaP cells [1] = biological target: T3, AR in VCaP cells (Homo sapiens, UniProt P10275); test: Nuclear AR, total AR protein and PSA expression in VCaP cells in steroid depleted medium; format: cell-based
T3 construct: endogenous in cells; host or cells: VCaP
T3 sequence (P10275 1-920): T1 sequence (P10275 1-920)
Excerpt: VCaP cells, derived from a CRPC vertebral metastasis, express substantial levels of AR and AR regulated genes such as PSA even when cultured in steroid depleted medium. […] In additional studies focused on chemotype A compounds, we used immunofluorescence to assess AR nuclear localization. […] In contrast, and consistent with the biochemical fractionation studies noted above, basal nuclear AR was decreased by A61.
We used the NE-PER Nuclear and Cytoplasmic Extraction Reagents (Pierce 78833).

AR in VCaP cells [2] = biological target: T3, AR in VCaP cells; test: Immunofluorescence of AR nuclear localization in VCaP cells (CSS medium); format: cell-based
Excerpt: VCaP cells, derived from a CRPC vertebral metastasis, express substantial levels of AR and AR regulated genes such as PSA even when cultured in steroid depleted medium. […] In additional studies focused on chemotype A compounds, we used immunofluorescence to assess AR nuclear localization.

AR in C4-2 cells = biological target: T4, AR in C4-2 cells (Homo sapiens, UniProt P10275, T878A)
T4 sequence (P10275 1-920 T878A): T1 sequence (P10275 1-920) with T878A

[3] = steroid depleted medium, data not shown

| inhibition at 12.5 µM (wildtype AR) | Compound | other results |
| --- | --- | --- |
| 20% | CCC(=O)c1ccc(S(=O)(=O)NCc2ccc3c(c2)OCO3)cc1C(F)(F)F [Compound 33, N-(benzo[d][1,3]dioxol-5-ylmethyl)-4-propionyl-3-(trifluoromethyl)benzenesulfonamide] |  |
| 85% | CS(=O)(=O)c1cc(S(=O)(=O)NCc2ccc3c(c2)OCO3)ccc1OC(F)(F)F [Compound 31, N-(benzo[d][1,3]dioxol-5-ylmethyl)-3-(methylsulfonyl)-4-(trifluoromethoxy)benzenesulfonamide] |  |
| 70% | O=C(CBr)Nc1ccc(S(=O)(=O)NCc2ccc3c(c2)OCO3)cc1 [Compound 13, N-(4-(N-(Benzo[d][1,3]dioxol-5-ylmethyl)sulfamoyl)phenyl) bromoacetamide] |  |
| 50% | CC(=O)c1ccc(S(=O)(=O)NCc2ccc3c(c2)OCO3)cc1C(F)(F)F [Compound 32, 4-acetyl-N-(benzo[d][1,3]dioxol-5-ylmethyl)-3-(trifluoromethyl)benzenesulfonamide] |  |
|  | CC(C)(O)C(=O)Nc1ccc([N+](=O)[O-])c(C(F)(F)F)c1 [hydroxyflutamide] | agonist activity on T877A mutant AR (T877A mutant AR): strong agonist; VP16-AR reporter (transcriptional) activity (VP16-AR): strong reporter activity |
| 20% | O=C(CBr)Nc1cccc(S(=O)(=O)NCc2ccc3c(c2)OCO3)c1 [Compound 17, N-(3-(N-(Benzo[d][1,3]dioxol-5-ylmethyl)sulfamoyl)phenyl)-2-bromoacetamide] |  |
| 50% | CC(=O)c1ccc(S(=O)(=O)NCc2ccc3c(c2)OCO3)cc1OC(F)(F)F [Compound 25, 4-acetyl-N-(benzo[d][1,3]dioxol-5-ylmethyl)-3-(trifluoromethoxy)benzenesulfonamide] |  |
|  | CC(=O)N(C(C)=O)c1ccc(S(=O)(=O)NCc2ccc3c(c2)OCO3)cc1 [Compound 15, N-acetyl-N-(4-(N-(Benzo[d][1,3]dioxol-5-ylmethyl)sulfamoyl)phenyl) acetamide] | % Angtag (12.5 μM vs. 1 nM DHT) (wildtype AR; 12.5 μM compound vs. 1 nM DHT): 85% |
| 20% | NC(=O)c1cc(S(=O)(=O)NCc2ccc3c(c2)OCO3)ccc1OC(F)(F)F [Compound 30, 5-(N-(benzo[d][1,3]dioxol-5-ylmethyl)sulfamoyl)-2-(trifluoromethoxy)benzamide] |  |
| 60% | CCC(=O)c1cc(S(=O)(=O)NCc2ccc3c(c2)OCO3)ccc1OC(F)(F)F [Compound 29, N-(benzo[d][1,3]dioxol-5-ylmethyl)-3-propionyl-4-(trifluoromethoxy)benzenesulfonamide] |  |
| 90% | O=C(CCl)Nc1ccc(S(=O)(=O)NCc2ccc3c(c2)OCO3)cc1 [Compound 14, N-(4-(N-(Benzo[d][1,3]dioxol-5-ylmethyl)sulfamoyl)phenyl)chloroacetamide] |  |
|  | O=S(=O)(NCc1ccc2c(c1)OCO2)c1ccc(F)cc1F [Compound A61, N-(1,3-benzodioxol-5-ylmethyl)-2,4-difluorobenzenesulfonamide] | potency in antagonizing AR activity in luciferase reporter assays (wildtype AR; relative to initial chemotype A compounds, data not shown): increased potency; also recorded: relatively higher potency; basal level PSA expression (AR in VCaP cells [1]; 10 μM, steroid depleted medium): further decreasing basal level PSA expression; nuclear AR (AR in VCaP cells [1]; 10 μM, steroid depleted medium): significantly decreased nuclear AR; DHT stimulated PSA expression (AR in VCaP cells [1]; not shown): blocking DHT stimulated PSA expression; nuclear AR levels by immunofluorescence (AR in VCaP cells [2]): decreased; basal PSA (AR in C4-2 cells; 24 hours (FIG. 10a)): decrease in basal PSA; total AR protein levels (AR in C4-2 cells; 24 hours (FIG. 10a)): noteworthy decrease; PSA expression (AR in C4-2 cells; [3]): reduced; nuclear AR levels (AR in C4-2 cells; [3]): reduced nuclear AR levels |
| 70% | CS(=O)(=O)Nc1ccc(S(=O)(=O)NCc2ccc3c(c2)OCO3)cc1 [Compound 21, N-(benzo[d][1,3]dioxol-5-ylmethyl)-4-(methylsulfonamido)benzenesulfonamide] |  |
| 70% | CC(C)(C)CC(=O)Nc1ccc(S(=O)(=O)NCc2ccc3c(c2)OCO3)cc1 [Compound 22, N-(4-(N-(Benzo[d][1,3]dioxol-5-ylmethyl)sulfamoyl)phenyl)-3,3-dimethylbutanamide] |  |
| 0% | O=C(Nc1ccc(S(=O)(=O)NCc2ccc3c(c2)OCO3)cc1)C(F)(F)F [Compound 20, N-(4-(N-(Benzo[d][1,3]-dioxol-5-ylmethyl)sulfamoyl)phenyl)-2,2,2-trifluoroacetamide] |  |

| Compound | inhibition at 12.5 µM (wildtype AR) | other results |
| --- | --- | --- |
| O=S(=O)(NCc1ccc2c(c1)OCO2)c1ccc(C(F)(F)F)c(N=C=S)c1 [Compound 23, N-(benzo[d][1,3]dioxol-5-ylmethyl)-3-isothiocyanato-4-(trifluoromethyl)benzenesulfonamide] | 75% |  |
